Test results as given in patent US20070141092A1, “BIGUANIDE COMPOSITION AND METHOD OF TREATMENT AND PREVENTION OF VIRAL INFECTIONS” (priority 2005, published 2007).

Assays:
Format in all cases: cell-based
Adenovirus Type-4 = experiment: Viral Suspension Assay, Adenovirus Type-4; conditions: both 30 ppm and 99 ppm
Protocol: (§1) The Viral Suspension Assay was used to evaluate the antiviral properties of Alexidine against Adenovirus Type-4, Adenovirus Type-8 and Adenovirus Type-19 and Cytomegalovirus when exposed in suspension for 1, 2, 5, and 10 minutes. The presence of virus (infectivity) was determined by monitoring the virus specific cytopathic effect (CPE) on an appropriate indicator cell line, rabbit kidney. Results are reported as Percent (%) Reduction in virus titer as compared to the corresponding virus control titer (Table 1). The titer of the virus controls were 7.5 log10 following the one minute exposure time; 7.0 log10 following the two minute exposure time; and 7.75 log10 following both the five and ten minute exposure times.

[1] = test system: Herpes simplex virus type 1; experiment: Viral Suspension Assay, HSV-1 (CPE on rabbit kidney indicator cells)
Protocol: as §1, with “Herpes simplex virus type 1” for “Adenovirus Type-4, Adenovirus Type-8 and Adenovirus Type-19 and Cytomegalovirus”

Adenovirus Type-8 = experiment: Viral Suspension Assay, Adenovirus Type-8; conditions: both 30 ppm and 99 ppm
Protocol: as §1

Cytomegalovirus = experiment: Viral Suspension Assay, Cytomegalovirus; conditions: both 30 ppm and 99 ppm
Protocol: as §1

CCCCC(CC)CNC(=N)NC(=N)NCCCCCCNC(=N)NC(=N)NCC(CC)CCCC (centres unmarked) [Alexidine, 1,1′-hexamethylene-bis[5-(2-ethylhexyl)biguanide]]
Effectiveness against Adenovirus Type-4 (in words) (Adenovirus Type-4): somewhat effective
Effectiveness against herpes simplex type-1 virus (in words) ([1]; both 30 ppm and 99 ppm): effective agents
Overall activity against Herpes Simplex-1 (in words) ([1]; summary statement): potent antimicrobial agent
Effectiveness against Adenovirus Type-8 (in words) (Adenovirus Type-8): somewhat effective
Effectiveness against Cytomegalovirus (in words) (Cytomegalovirus): somewhat effective
